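Briefly, cells in 96-well plates were exposed to five compound concentrations for 48 h, and endpoints were estimated by linear interpolation. At the GI50, growth is halved.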 The source made the active and inactive calls. Rule as the data show it: active = GI50 up to about 1.1 µM and inactive = higher.
How the values were obtained:
Assay in all cases: NCI-60 cell line screen, 48 h
[1] = tested on: COLO 205
[2] = tested on: HT-29
[3] = tested on: HOP-92
[4] = tested on: RXF 393
[5] = tested on: K562
[6] = tested on: NCI-H226
[7] = tested on: SK-MEL-2
[8] = tested on: OVCAR-5
[9] = tested on: SNB-19
[10] = tested on: SNB-75
[11] = tested on: RPMI-8226
[12] = tested on: IGROV-1
[13] = tested on: SF-268
[14] = tested on: CCRF-CEM
[15] = tested on: SN12C
[16] = tested on: A549
[17] = tested on: OVCAR-3
[18] = tested on: UO-31
[19] = tested on: SK-MEL-5
[20] = tested on: UACC-257

SMILES: O=C(N/N=C/C=C/c1ccc([N+](=O)[O-])o1)c1ccc(Br)s1
- GI50 [1]: 17 µM (inactive)
- GI50 [2]: 17 µM (inactive)
- GI50 [3]: 10.8 µM (inactive)
- GI50 [4]: 15.6 µM (inactive)
- GI50 [5]: 24.5 µM (inactive)
- GI50 [6]: 22.2 µM (inactive)
- GI50 [7]: 23.3 µM (inactive)
- GI50 [8]: 26.3 µM (inactive)
- GI50 [9]: 24 µM (inactive)
- GI50 [10]: > 100 µM (inactive)
- GI50 [11]: 3.78 µM (inactive)
- GI50 [12]: 6.76 µM (inactive)
- GI50 [13]: 28.8 µM (inactive)
- GI50 [14]: 9.2 µM (inactive)
- GI50 [15]: 29.6 µM (inactive)
- GI50 [16]: 82.8 µM (inactive)
- GI50 [17]: 16.1 µM (inactive)
- GI50 [18]: 21 µM (inactive)
- GI50 [19]: 18.6 µM (inactive)

SMILES: Oc1ccccc1-c1nn2c(CCCCCCCCc3nnc4sc(-c5ccccc5O)nn34)nnc2s1
- GI50 [1]: 37.2 µM (inactive)
- GI50 [2]: 11.1 µM (inactive)
- GI50 [3]: 19.1 µM (inactive)
- GI50 [4]: 10.2 µM (inactive)
- GI50 [5]: 7.6 µM (inactive)
- GI50 [6]: > 48.9 µM (inactive)
- GI50 [7]: 15.9 µM (inactive)
- GI50 [8]: 6.27 µM (inactive)
- GI50 [9]: 23.7 µM (inactive)
- GI50 [20]: 20.3 µM (inactive)
- GI50 [10]: 5.94 µM (inactive)
- GI50 [11]: 11.1 µM (inactive)
- GI50 [12]: 4.66 µM (inactive)
- GI50 [13]: 19 µM (inactive)
- GI50 [14]: 5.42 µM (inactive)
- GI50 [15]: 19.5 µM (inactive)
- GI50 [16]: 6 µM (inactive)
- GI50 [17]: 14.4 µM (inactive)
- GI50 [18]: 4.11 µM (inactive)
- GI50 [19]: 18.3 µM (inactive)

SMILES: Nc1nnc(N)n1NC(=O)C(=O)Nc1ccc([N+](=O)[O-])cc1
- GI50 [1]: > 100 µM (inactive)
- GI50 [2]: > 100 µM (inactive)
- GI50 [3]: > 100 µM (inactive)
- GI50 [4]: > 100 µM (inactive)
- GI50 [5]: 98.9 µM (inactive)
- GI50 [6]: > 100 µM (inactive)
- GI50 [7]: > 100 µM (inactive)
- GI50 [8]: > 100 µM (inactive)
- GI50 [9]: > 100 µM (inactive)
- GI50 [20]: > 100 µM (inactive)
- GI50 [10]: > 100 µM (inactive)
- GI50 [11]: > 100 µM (inactive)
- GI50 [12]: > 100 µM (inactive)
- GI50 [13]: > 100 µM (inactive)
- GI50 [14]: > 100 µM (inactive)
- GI50 [15]: > 100 µM (inactive)
- GI50 [16]: > 100 µM (inactive)
- GI50 [18]: > 100 µM (inactive)
- GI50 [19]: > 100 µM (inactive)

SMILES: COP(=O)(OC)[C@H](O)[C@H]1C[C@@H]1c1ccccc1
- GI50 [1]: > 100 µM (inactive)
- GI50 [2]: > 100 µM (inactive)
- GI50 [3]: 17.4 µM (inactive)
- GI50 [4]: > 100 µM (inactive)
- GI50 [5]: > 100 µM (inactive)
- GI50 [6]: > 100 µM (inactive)
- GI50 [7]: > 100 µM (inactive)
- GI50 [8]: > 100 µM (inactive)
- GI50 [9]: > 100 µM (inactive)
- GI50 [20]: > 100 µM (inactive)
- GI50 [10]: > 100 µM (inactive)
- GI50 [11]: > 100 µM (inactive)
- GI50 [12]: > 100 µM (inactive)
- GI50 [13]: > 100 µM (inactive)
- GI50 [16]: > 100 µM (inactive)
- GI50 [17]: > 100 µM (inactive)
- GI50 [18]: > 100 µM (inactive)
- GI50 [19]: > 100 µM (inactive)

SMILES: CC(=O)O[C@H]1[C@@H]2OC(=O)[C@@](O)(CC3CCCO3)[C@@H]2CC(=O)[C@](C)(O)CC/C=C(\C)CCC[C@@H]1C (stereo not given in full)
- GI50 [1]: 18.6 µM (inactive)
- GI50 [3]: 28.2 µM (inactive)
- GI50 [4]: 20 µM (inactive)
- GI50 [5]: 24.4 µM (inactive)
- GI50 [6]: 15.6 µM (inactive)
- GI50 [7]: 57.5 µM (inactive)
- GI50 [8]: > 100 µM (inactive)
- GI50 [9]: > 100 µM (inactive)
- GI50 [20]: 70.3 µM (inactive)
- GI50 [10]: 97.5 µM (inactive)
- GI50 [11]: 26.2 µM (inactive)
- GI50 [12]: 46.5 µM (inactive)
- GI50 [13]: > 100 µM (inactive)
- GI50 [14]: 22.7 µM (inactive)
- GI50 [15]: 30.4 µM (inactive)
- GI50 [16]: 40.6 µM (inactive)
- GI50 [17]: 63.2 µM (inactive)
- GI50 [18]: 61.8 µM (inactive)
- GI50 [19]: 43.6 µM (inactive)

SMILES: N#C/C(=C\c1cccc(O)c1O)C(N)=O
- GI50 [1]: 21.5 µM (inactive)
- GI50 [2]: 58.5 µM (inactive)
- GI50 [3]: 41.3 µM (inactive)
- GI50 [4]: 3.22 µM (inactive)
- GI50 [5]: 38.6 µM (inactive)
- GI50 [6]: 25.3 µM (inactive)
- GI50 [7]: 38.4 µM (inactive)
- GI50 [8]: > 100 µM (inactive)
- GI50 [9]: 57.5 µM (inactive)
- GI50 [20]: 39.5 µM (inactive)
- GI50 [10]: 9.57 µM (inactive)
- GI50 [11]: 18.3 µM (inactive)
- GI50 [12]: 93.1 µM (inactive)
- GI50 [13]: 37.9 µM (inactive)
- GI50 [14]: 14.1 µM (inactive)
- GI50 [15]: 45.6 µM (inactive)
- GI50 [16]: 65.3 µM (inactive)
- GI50 [17]: 40.9 µM (inactive)
- GI50 [18]: 22.7 µM (inactive)

SMILES: NC[C@H]1Nc2ccccc2[C@@H](O)C1O (stereo not given in full)
- GI50 [1]: > 100 µM (inactive)
- GI50 [2]: > 100 µM (inactive)
- GI50 [3]: > 100 µM (inactive)
- GI50 [4]: > 100 µM (inactive)
- GI50 [5]: > 100 µM (inactive)
- GI50 [6]: > 100 µM (inactive)
- GI50 [7]: > 100 µM (inactive)
- GI50 [8]: > 100 µM (inactive)
- GI50 [9]: > 100 µM (inactive)
- GI50 [20]: > 100 µM (inactive)
- GI50 [10]: > 100 µM (inactive)
- GI50 [11]: > 100 µM (inactive)
- GI50 [12]: > 100 µM (inactive)
- GI50 [13]: > 100 µM (inactive)
- GI50 [14]: > 100 µM (inactive)
- GI50 [15]: > 100 µM (inactive)
- GI50 [16]: > 100 µM (inactive)
- GI50 [17]: > 100 µM (inactive)
- GI50 [18]: > 100 µM (inactive)
- GI50 [19]: > 100 µM (inactive)

SMILES: CC1C[C@]2(C[C@@H](C)C(=O)O2)OC2CC3(C)C4CCC5C(C)(C)OC(=O)CC[C@@]56C[C@@]46CC[C@]3(C)C12 (stereo not given in full)
- GI50 [1]: > 100 µM (inactive)
- GI50 [2]: > 100 µM (inactive)
- GI50 [3]: > 100 µM (inactive)
- GI50 [4]: > 100 µM (inactive)
- GI50 [5]: 64.9 µM (inactive)
- GI50 [6]: > 100 µM (inactive)
- GI50 [7]: > 100 µM (inactive)
- GI50 [8]: > 100 µM (inactive)
- GI50 [9]: > 100 µM (inactive)
- GI50 [20]: > 100 µM (inactive)
- GI50 [10]: > 100 µM (inactive)
- GI50 [11]: > 100 µM (inactive)
- GI50 [12]: > 100 µM (inactive)
- GI50 [13]: > 100 µM (inactive)
- GI50 [14]: > 100 µM (inactive)
- GI50 [15]: > 100 µM (inactive)
- GI50 [16]: > 100 µM (inactive)
- GI50 [19]: > 100 µM (inactive)

SMILES: COc1cc(C2c3cc4c(cc3[C@@H](Nc3ccc(N5CCOCC5)cc3)C3COC(=O)[C@H]23)OCO4)cc(OC)c1O (stereo not given in full)
- GI50 [1]: 2 µM (inactive)
- GI50 [2]: 1.65 µM (inactive)
- GI50 [3]: 0.773 µM (active)
- GI50 [4]: 2.3 µM (inactive)
- GI50 [5]: 1.39 µM (inactive)
- GI50 [6]: 0.773 µM (active)
- GI50 [7]: 2.46 µM (inactive)
- GI50 [8]: 1.82 µM (inactive)
- GI50 [9]: 0.2 µM (active)
- GI50 [10]: 5.19 µM (inactive)
- GI50 [11]: 0.223 µM (active)
- GI50 [12]: 4.01 µM (inactive)
- GI50 [13]: 1.07 µM (active)
- GI50 [14]: 0.136 µM (active)
- GI50 [15]: 0.388 µM (active)
- GI50 [16]: 0.0659 µM (active)
- GI50 [17]: 2.86 µM (inactive)
- GI50 [18]: 1.85 µM (inactive)
- GI50 [19]: 1.04 µM (active)

SMILES: Cc1ccc2c(O)cc(-c3cc(C)sc3C)nc2n1
- GI50 [1]: 2.26 µM (inactive)
- GI50 [2]: 4.82 µM (inactive)
- GI50 [3]: 17.9 µM (inactive)
- GI50 [4]: 2.81 µM (inactive)
- GI50 [5]: 2.94 µM (inactive)
- GI50 [6]: 2.38 µM (inactive)
- GI50 [8]: 11.6 µM (inactive)
- GI50 [9]: 3.66 µM (inactive)
- GI50 [20]: > 37.7 µM (inactive)
- GI50 [10]: 2.9 µM (inactive)
- GI50 [11]: 2.37 µM (inactive)
- GI50 [12]: 3.36 µM (inactive)
- GI50 [13]: 6.04 µM (inactive)
- GI50 [14]: 2.53 µM (inactive)
- GI50 [15]: 6.44 µM (inactive)
- GI50 [16]: 3.94 µM (inactive)
- GI50 [17]: 3.5 µM (inactive)
- GI50 [18]: 4.29 µM (inactive)
- GI50 [19]: 0.708 µM (active)
